Where two headings read alike, the source gives them in different places.
Key:
[1] = target: T1, human MMP-9 (gelatinase B) (Homo sapiens, UniProt P14780); assay: Inhibition activity against human MMP-9 (gelatinase B), fluorescent peptide substrate; type: biochemical
T1 construct: endogenous in cells; host or cells: HT1080 human fibrosarcoma cells (ATCC CCL-121), PMA-stimulated; enzyme purified from the culture supernatant
Procedure: Human MMP-9 (gelatinase B) was purified by the following method from a culture supernatant of HT1080 cells (human fibrosarcoma).
2.5×10^6 HT1080 cells (ATCC CCL-121, purchased from Dainippon Seiyaku) were inoculated to a tissue culture dish (Code No. 3020-100, manufactured by Iwaki Glass Co., Ltd.) having a diameter of 10 cm and containing 10 ml of Dulbecco's Modified Eagle Medium (DME, No. D-5648, manufactured by Sigma Co.) containing 10% fetal bovine serum (FBS: REHATUIN™, Code No. 1020-90, manufactured by Intergen Co.) and cultured for 72 hours at 37° C. in an atmosphere comprising 5% of CO2 and 95% of air (Carbon Dioxide Incubator LNA-122D Model, manufactured by Tabai Co.). Then, the medium was changed to 10 ml of a DME culture medium containing no FBS, and phorbol 12-myristate 13-acetate (PMA, code No. 163-114851, manufactured by Wako Pure Chemical Industries, Ltd.) was added so that the final concentration became 10 ng/ml. Under the same conditions, the culturing was carried out for further 20 hours, whereupon the culture supernatant was collected and subjected to cool centrifugation at 4° C. for 5 minutes (cool centrifugal separator, manufactured by Hitachi) to remove cell fragments.
The pH of a conditioned medium (50 ml) containing MMP-9, thus prepared, was adjusted to 8.0 with 0.2N NaOH. […] Namely, the above-mentioned conditioned medium was passed through DEAE-Sephacel (manufactured by Pharmacia, gel volume: about 35 ml) preliminarily equilibrated with 50 mM Tris-HCl, pH 8.0 (A buffer), and a non-adsorption fraction was collected. Then, it was added to Dye Matrix Gel Green A (manufactured by Amicon Co., gel volume: about 6 ml) preliminarily equilibrated with 50 mM Tris-HCl, pH 7.5/10 MM CaCl2/0.05% Brij 35/0.02% NaN3 (B buffer) and thoroughly washed with the same buffer, whereupon the adsorbed enzyme was eluted with a 1M NaCl-containing B buffer. About 7.5 ml of the eluted fraction was diluted twice with the B buffer and added to Gelatin-Sepharose 4B (manufactured by Pharmacia, gel volume: about 6 ml) preliminarily equilibrated with a 0.5 M NaCl-containing B buffer. It was thoroughly washed with a 0.5M NaCl-containing B buffer, and eluted with the B buffer containing 10% of dimethylsulfoxide (DMSO) and 0.5 M of NaCl. 5.5 ml of the eluted fraction was dialyzed against a 0.1 M NaCl-containing B buffer to obtain 5.2 ml of a purified enzyme solution. The purified MMP-9 standard product was confirmed to have a single band of 92 kDa by a protein staining by SDS electrophoresis, and further, it was confirmed to have an adequate gelatin decomposing activity by gelatinzymography (carried out in accordance with a method by Howard E. W. et al; Journal Biological Chemistry, Vol. 266, 13064-13069, 1991) and to have an adequate substrate decomposing activity by the after-mentioned measurement employing a fluorescent peptide substrate specific to MMP.
The inhibition activity against human MMP-9 was measured by the following method in accordance with the method by C. G. Knight et al (FEBS Letters, Vol, 296, 263-266, 1992) employing a fluorescent peptide substrate (7-methoxycoumarin-4-yl)Acetyl-Pro-Leu-Gly-Leu-(3-[2,4-dinitrophenyl]—Ala—Arg-NH2, Code 3163-VC, manufactured by Peptide Institute, Inc.
Further, as the case requires, commercially available human MMP-9 purified enzyme (No. YU-18003, manufactured by Kabushiki Kaisha Yagai Chuo Kenkyusho; used in a final concentration of from 0.0125 to 0.025 unit/ml, No. CC079, manufactured by Chemicon International, Inc.; used in a final concentration of 0.2 μg/ml) was used for the tests. […]

[2] = intermediates, compounds of the formula (IV), 1st measurement, read-out: MMP-9 inhibition activities IC50, 1st
[3] = intermediates, compounds of the formula (IV), average of 1st and 2nd (or single measurement), read-out: MMP-9 inhibition activities IC50, Average
[4] = compounds of the formula (I), 1st measurement, read-out: MMP-9 inhibition activities IC50, 1st
[5] = compounds of the formula (I), 2nd measurement, read-out: MMP-9 inhibition activities IC50, 2nd
[6] = compounds of the formula (I), average of 1st and 2nd (or single measurement), read-out: MMP-9 inhibition activities IC50, Average
[7] = intermediates, compounds of the formula (IV), 2nd measurement, read-out: MMP-9 inhibition activities IC50, 2nd

T1 sequence (P14780 107-707 limits assumed): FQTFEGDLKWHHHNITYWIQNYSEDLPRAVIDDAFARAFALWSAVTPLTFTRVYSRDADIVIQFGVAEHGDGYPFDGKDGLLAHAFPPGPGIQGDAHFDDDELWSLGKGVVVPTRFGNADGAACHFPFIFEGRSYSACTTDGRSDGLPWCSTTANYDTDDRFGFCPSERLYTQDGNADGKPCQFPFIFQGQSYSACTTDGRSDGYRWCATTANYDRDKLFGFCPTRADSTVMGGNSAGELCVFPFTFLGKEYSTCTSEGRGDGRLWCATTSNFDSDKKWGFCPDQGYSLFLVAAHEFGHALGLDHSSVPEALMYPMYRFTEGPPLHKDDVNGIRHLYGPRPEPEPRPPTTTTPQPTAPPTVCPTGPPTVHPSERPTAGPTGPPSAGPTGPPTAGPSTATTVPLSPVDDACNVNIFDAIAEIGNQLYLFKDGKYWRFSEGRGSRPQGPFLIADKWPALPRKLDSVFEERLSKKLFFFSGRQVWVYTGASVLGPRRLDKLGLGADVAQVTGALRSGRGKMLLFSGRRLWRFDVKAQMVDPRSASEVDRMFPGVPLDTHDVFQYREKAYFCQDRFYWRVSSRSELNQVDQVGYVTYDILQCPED

CSC(=C[N+](=O)[O-])NS(C)(=O)=O (single isomer, unassigned) [Intermediate 64]
IC50 [1, 2]: 4.4 µM | IC50 [1, 3]: 4.4 µM

O=[N+]([O-])C=C(NNc1ccccc1)Nc1ccccc1 [Compound No. 2]
IC50 [1, 4]: 45.1 µM | IC50 [1, 5]: 24.7 µM | IC50 [1, 6]: 34.9 µM

CNC(=C[N+](=O)[O-])NNc1cccc(Cl)c1 [Compound No. 9]
IC50 [1, 4]: 42.2 µM | IC50 [1, 5]: 43.9 µM | IC50 [1, 6]: 43.1 µM | melting point: 191 °C (dec.)

CNC(=C[N+](=O)[O-])NNc1cccc(C)c1 [Compound No. 15]
IC50 [1, 4]: 46.8 µM | IC50 [1, 5]: 52.7 µM | IC50 [1, 6]: 49.8 µM | melting point: 189 °C (dec.)

CNC(=C[N+](=O)[O-])NNc1ccc(C)cc1 [Compound No. 16]
IC50 [1, 4]: 49.8 µM | IC50 [1, 5]: 43.9 µM | IC50 [1, 6]: 46.8 µM | melting point: 186 °C (dec.)

CNC(=C[N+](=O)[O-])NNc1ccc(C(F)(F)F)cn1 [Compound No. 19]
IC50 [1, 4]: 10.1 µM | IC50 [1, 5]: 13.2 µM | IC50 [1, 6]: 11.7 µM | melting point: 207 °C (dec.)

CNC(=C[N+](=O)[O-])NN=Cc1ccccn1 [Compound No. 29, 2-pyridinecarbaldehyde 1-methylamino-2-nitroethenylhydrazone]
IC50 [1, 4]: 30.8 µM | IC50 [1, 5]: 24.5 µM | IC50 [1, 6]: 27.7 µM

CNC(=C[N+](=O)[O-])NNc1c([N+](=O)[O-])c(C)nn1C [Compound No. 30]
IC50 [1, 4]: 11.3 µM | IC50 [1, 5]: 17.5 µM | IC50 [1, 6]: 14.4 µM | melting point: 164 °C (dec.)

CNC(=C[N+](=O)[O-])NN(C)c1ncc(C(F)(F)F)cc1Cl [Compound No. 35, N-methyl-1-(2-methyl-2-(3-chloro-5-trifluoromethyl-2-pyridyl)hydrazino)-2-nitroetheneamine]
IC50 [1, 4]: 14.6 µM | IC50 [1, 5]: 22.1 µM | IC50 [1, 6]: 18.4 µM

NNC(=C[N+](=O)[O-])Nc1ccc(OC(F)(F)F)cc1 [Compound No. 61, N-(1-hydrazino-2-nitroethenyl)-4-trifluoromethoxyaniline]
IC50 [1, 4]: 39.7 µM | IC50 [1, 5]: 42.2 µM | IC50 [1, 6]: 40.9 µM | melting point: 161 °C (dec.)

CNC(=C[N+](=O)[O-])NNc1cc(C(F)(F)F)cc(OC)n1 [Compound No. 98, N-methyl-1-(2-(4-trifluoromethyl-6-methoxy-2-pyridyl)hydrazino)-2-nitroetheneamine]
IC50 [1, 4]: 8.8 µM | IC50 [1, 5]: 7.8 µM | IC50 [1, 6]: 8.3 µM | melting point: 193 °C (dec.)

CNC(=C[N+](=O)[O-])NNc1cc(C(F)(F)F)cc(OCCN(C)C)n1 [Compound No. 100]
IC50 [1, 4]: 38.7 µM | IC50 [1, 5]: 26 µM | IC50 [1, 6]: 32.4 µM | melting point: 125 to 126 °C (dec.)

CS(=O)(=O)NC(=C[N+](=O)[O-])NN1CCOCC1 [Compound No. 163, N-(1-(N-morpholino)amino-2-nitroethenyl)methanesulfonamide]
IC50 [1, 4]: 9.2 µM | IC50 [1, 6]: 9.2 µM

CSC(=C[N+](=O)[O-])NC1CC1 [Intermediate 2]
IC50 [1, 2]: 31.4 µM | IC50 [1, 7]: 59.9 µM | IC50 [1, 3]: 45.7 µM | melting point: 101.5 to 106 °C

CNC(=C[N+](=O)[O-])SC [Intermediate 5]
IC50 [1, 2]: 26.9 µM | IC50 [1, 3]: 26.9 µM

CCNC(=C[N+](=O)[O-])SC [Intermediate 6]
IC50 [1, 2]: 33 µM | IC50 [1, 3]: 33 µM

CSC(=C[N+](=O)[O-])NC(C)C [Intermediate 10]
IC50 [1, 2]: 26.9 µM | IC50 [1, 7]: 46.6 µM | IC50 [1, 3]: 36.8 µM

CSC(=C[N+](=O)[O-])Nc1ccc(Cl)cc1 [Intermediate 19]
IC50 [1, 2]: 29.9 µM | IC50 [1, 7]: 35.6 µM | IC50 [1, 3]: 32.8 µM

CSC(=C[N+](=O)[O-])NS(C)(=O)=O [Intermediate 57, N-(1-(methylthio)-2-nitroethenyl)methanesulfonamide]
IC50 [1, 2]: 49.4 µM | IC50 [1, 7]: 37.5 µM | IC50 [1, 3]: 43.5 µM

CCS(=O)(=O)NC(=C[N+](=O)[O-])SC [Intermediate 59]
IC50 [1, 2]: 11.4 µM | IC50 [1, 3]: 11.4 µM

CONC(=C[N+](=O)[O-])SC [Intermediate 63]
IC50 [1, 2]: 4.3 µM | IC50 [1, 3]: 4.3 µM

CCCCCCCCNC(=C[N+](=O)[O-])NN [compound 46]
IC50 [1, 4]: 36.2 µM | IC50 [1, 5]: 34.8 µM | IC50 [1, 6]: 35.5 µM

NNC(=C[N+](=O)[O-])Nc1ccc(Cl)cc1 [compound 51]
IC50 [1, 4]: 27.3 µM | IC50 [1, 5]: 32.1 µM | IC50 [1, 6]: 29.7 µM

CNNC(=C[N+](=O)[O-])NC [compound 82]
IC50 [1, 4]: 52.9 µM | IC50 [1, 5]: 19 µM | IC50 [1, 6]: 36 µM

CNC(=C[N+](=O)[O-])NN(C)C [compound 83]
IC50 [1, 4]: 66.2 µM | IC50 [1, 5]: 14.2 µM | IC50 [1, 6]: 36 µM

CNC(=C[N+](=O)[O-])NNc1ccccc1 [compound 84]
IC50 [1, 4]: 43.4 µM | IC50 [1, 5]: 14.2 µM | IC50 [1, 6]: 28.8 µM

CCCCNC(=C[N+](=O)[O-])NN [compound 85]
IC50 [1, 4]: 52.8 µM | IC50 [1, 5]: 41.1 µM | IC50 [1, 6]: 47 µM

CC(C)NC(=C[N+](=O)[O-])NN [compound 88]
IC50 [1, 4]: 37.7 µM | IC50 [1, 5]: 57.5 µM | IC50 [1, 6]: 47.6 µM

CNC(=C[N+](=O)[O-])NN [compound 93]
IC50 [1, 4]: 48.3 µM | IC50 [1, 5]: 44.8 µM | IC50 [1, 6]: 46.6 µM

CNC(=C[N+](=O)[O-])NNc1cc(C(F)(F)F)ncn1 [compound 97]
IC50 [1, 4]: 45.7 µM | IC50 [1, 5]: 35.3 µM | IC50 [1, 6]: 40.5 µM

CNC(=C[N+](=O)[O-])NNS(C)(=O)=O [compound 108]
IC50 [1, 4]: 15 µM | IC50 [1, 5]: 35 µM | IC50 [1, 6]: 25 µM

C=C1C(C)=NN/C(=C\[N+](=O)[O-])N1c1ccccc1 [compound 155]
IC50 [1, 4]: 24.3 µM | IC50 [1, 5]: 43.5 µM | IC50 [1, 6]: 33.9 µM
